Data set [1] can be described thus: plasma samples from SBS patients injected once daily (QD) subcutaneously with ZP1848. To be noted: human, up to Day 56.
Data set [2] in a line: plasma of healthy subjects after SC injections (once daily or once weekly) or single IV infusion of glepaglutide. The settings on record: human, up to 168 hours post dose.
Data set [3] addresses T1, human GLP-2 receptors (Homo sapiens, UniProt O95838, D470N).
T1 sequence (O95838 1-553 D470N): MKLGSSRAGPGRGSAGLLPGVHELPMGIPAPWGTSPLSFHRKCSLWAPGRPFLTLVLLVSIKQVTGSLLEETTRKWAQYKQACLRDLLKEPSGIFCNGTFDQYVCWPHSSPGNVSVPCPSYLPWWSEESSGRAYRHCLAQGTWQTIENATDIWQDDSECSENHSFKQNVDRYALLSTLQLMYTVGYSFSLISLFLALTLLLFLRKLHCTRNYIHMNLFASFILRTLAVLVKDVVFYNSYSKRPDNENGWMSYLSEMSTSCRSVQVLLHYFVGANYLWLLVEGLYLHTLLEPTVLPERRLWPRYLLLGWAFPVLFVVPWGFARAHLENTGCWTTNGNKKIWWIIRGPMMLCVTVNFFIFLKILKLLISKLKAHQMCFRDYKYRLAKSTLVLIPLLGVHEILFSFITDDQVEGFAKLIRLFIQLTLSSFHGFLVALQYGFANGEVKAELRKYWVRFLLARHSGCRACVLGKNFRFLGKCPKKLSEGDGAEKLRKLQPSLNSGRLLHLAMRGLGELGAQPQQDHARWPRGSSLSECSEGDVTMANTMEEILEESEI
The data set is described as follows: GLP-2 receptor efficacy assay (cAMP AlphaScreen). Format: cell-based. The source says: The hGLP2-R was purchased from MRC-geneservice, Babraham, Cambridge as an Image clone: 5363415 (11924-117). For subcloning into a mammalian expression vector, primers for subcloning were obtained from DNA-Technology, Risskov, Denmark. The 5' and 3' primers used for the PCR reaction include terminal restriction sites for cloning and the context of the 5' primer is modified to a Kozak consensus without changing the sequence of the product encoded by the ORF. A standard PCR reaction was run using Image clone 5363415 (11924-117) as a template with the above mentioned primers and Polymerase Herculase II Fusion in a total vol. of 50µl. The generated PCR product was purified using GFX PCR and Gel band purification kit, digested with restriction enzymes and cloned into the mammalian expression vector using Rapid DNA Ligation Kit. Ligation reaction was transformed to XL10 Gold Ultracompetent cells and colonies were picked for DNA production using Endofree Plasmid maxi kit. Subsequent sequence analysis was conducted by MWG Eurofins, Germany.
HEK293 cells were transfected using the Lipofectamine PLUS transfection method. The day before transfection, HEK293 cells were seeded in two T75 flasks at a density of 2 x 10^6 cells / T75 flask in cell culturing medium without antibiotics. On the day of transfection, cells were washed with 1x DPBS and medium was replaced with Optimem to a volume of 5 mL / T75 flask before addition of Lipofectamine-plasmid complexes were added gently and drop wise to the cells in T75 flasks and replaced with growth medium after 3 hours and again to growth medium supplemented with 500µg/mL G418 after 24 hours. After 4 weeks in G418 selection, clones were picked and tested in a functional assay.
The cAMP AlphaScreen® assay from Perkin Elmer was used to quantitate the cAMP response to activation of the GLP2 receptor. […] Table 2: GLP-2R EC50 measurements
(Bead proximity is the source of the signal in Alpha formats.)

The nature of data set [4]: Phase 2 clinical trial, PK profile of ZP1848 and metabolites in SBS patients. It is filed as in vivo, human. To be noted: for Conc.: plasma. The protocol: A phase 2 clinical trial was conducted to i.a. determine the PK profile of ZP1848 and metabolites in human SBS patients.
The study was designed as a randomized, cross-over and double-blinded with three different doses of ZP1848 (10 mg, 1 mg, 0.1 mg) in 16 SBS patients.
The 18 SBS patients (16 patients completed the study) were randomized evenly and in a double-blinded fashion to each of the six cross-over dose level combinations: 10 mg/1 mg, 10 mg/0.1 mg, 1 mg/10 mg, 1 mg/0.1 mg, 0.1 mg/10 mg, 0.1 mg/1 mg of ZP1848. The patients were injected once daily (QD) subcutaneously with the above doses of ZP1848.
Blood samples for PK analysis were collected on several study visits throughout the study period: the study comprised a 1st baseline balance study (4 days), a 1st treatment period (21 days) including a 1st treatment balance study (last 4 days of 1st treatment period), followed by a wash-out period (at least 4 weeks); and a 2nd baseline balance study (4 days), a 2nd treatment period (21 days) including a 2nd treatment balance study (last 4 days of 2nd treatment period) and a follow-up period (at least 4 weeks).
PK sampling was performed at visit 11 (1st treatment, balance study) and visit 17 (second day of 2nd baseline study - after a wash out period), and again at visit 25 (2nd treatment balance study) and at visit 29 (last day of follow-up period).
At day visit 11 and visit 25 a full PK profile in steady state was investigated. PK samples were taken prior to injection of ZP1848, and at the following time points (+/- 10 minutes) after trial product administration: 1h, 2h, 4h, 6h, 8h, 10h, 12h and 24h. Each PK sample contained 2 mL of blood, resulting in a total of […] blood drawn for PK purposes. The plasma sample was immediately stored at -80°C after sampling.
Plasma samples were analyzed after immunoaffinity extraction followed by liquid chromatography mass spectrometry (LC-MS/MS). For each patient plasma concentrations were used for calculation of the pharmacokinetic parameters using the non-compartmental approach in Excel. Plasma terminal elimination half-life (T½) was determined as In(2)/ke where ke is the magnitude of the slope of the log linear regression of the log concentration versus time profile during the terminal phase.

For data set [5] the following is noted: background statement; cited from earlier work.
Data set [6] relates to Wistar rats. Put plainly: Intestinotrophic effects after 26 weeks of daily SC dosing in rats. Format: in vivo. The protocol: Wistar rats were dosed subcutaneously (SC) with vehicle, 1, 3 and 10 mg/kg ZP1848 on a daily basis for 26 weeks. Further sub-groups of control and high-dose animals were allowed a 6-week recovery period following completion of the dosing period. […] The length and the weight of the small and large intestines were measured at necropsy as indicators of intestinotrophic effects and the intestinal tract was evaluated histologically.

Data set [7] has as its system SBS patients. Put plainly: Fecal wet weight output in SBS-IF/SBS-II patients (metabolic balance studies). Format: in vivo, human. The settings on record: change from baseline. As for the experimental part: The study was designed as a randomized, cross-over and double-blinded with three different doses of ZP1848 (10 mg, 1 mg, 0.1 mg) in 16 SBS patients. The study protocol was approved by the Danish Medical Agency and The Danish Committee on Health Research Ethics.
The 18 SBS patients were randomized evenly and in a double-blinded fashion to each of the six cross-over dose level combinations: 10 mg/1 mg, 10 mg/0.1 mg, 1 mg/10 mg, 1 mg/0.1 mg, 0.1 mg/10 mg, 0.1 mg/1 mg of ZP1848. The SBS patient group comprised 9 females, 9 males; hereof 13 SBS-IF patients and 5 SBS-II patients. Mean age was 62 years, mean short bowel length was 110 cm, and two SBS-IF patients had > 50% colon in continuity. The patients were injected once daily subcutaneously with the above doses of ZP1848.
The aim of this study was to evaluate efficacy of ZP1848 on fecal wet weight output in patients with SBS-II and SBS-IF and thus the absolute change from baseline in wet weight of fecal output as measured by metabolic balance studies prior to and on the […] of each treatment period.

Data set [8] has as its system Beagle Dogs. Put plainly: 39-week subcutaneous administration to beagle dogs with 6-week recovery, intestine length and weight. Format: in vivo. The settings on record: vs controls. The protocol:
ZP1848 (0.25, 1 or 5 mg/kg/day) was given for 39 weeks subcutaneously to beagle dogs (22 to 24 weeks). Vehicle was used as the control. Recovery from any effect was evaluated during a 6 week recovery period. The study was conducted in accordance with the applicable sections of the United Kingdom Animals (Scientific Procedures) Act 1986, Amendment Regulations 2012 (the Act).
After 39 weeks the dogs were sacrificed and all animals were subject to a detailed necropsy. The length of the small and large intestines were measured separately and recorded in centimeters. The entire length of the gastrointestinal tract (starting at the duodenum and ending at the rectum) was removed and trimmed of any excessive mesentery, connective or adipose tissue and the measurements for the small and large intestine recorded by laying the small intestine and large intestine on a clean surface and measured with a tape measure. The sections required for histopathology were left unopened and flushed through with water. The remainder were opened, cleaned with water, carefully blotted dry prior to weighing. On completion of length and weight measurements, the gastrointestinal tract was processed and fixed in 10% Neutral Buffered Formalin, as per standard necropsy practice for this species.

Setting [9] is: females, 10 mg/kg SC daily, 26 weeks, main study animals.
Where [10] appears, read: females, 10 mg/kg, recovery animals (6-week recovery).
Where [11] appears, read: males, 10 mg/kg SC daily, 26 weeks, main study animals.
Where [12] appears, read: males, 10 mg/kg, recovery animals (6-week recovery).
The mark [13] stands for this setting: females, 5 mg/kg/day SC, 39 weeks.
The mark [14] stands for this setting: females, end of six-week recovery period.
Setting [15] is: males, 5 mg/kg/day SC, 39 weeks.
The mark [16] stands for this setting: males, end of six-week recovery period.

“And” between values parts separate entries of the source, which are not always exact repeats. Identical values can stand only once. “Also recorded” adds a separate entry of the source. Like-named read-outs stand apart in the source and are kept apart here.

Usually EC50 stands for the concentration giving half of the maximal effect.

As for “H-HGEGTFSSELATILDALAARDFIAWLIATKITDKKKKKK-NH2”, the fragment found result is listed as “ZP2469, major; also recorded: ZP2711, major” in data set [1] and “ZP2469 (ZP18481-34), major; also recorded: ZP2711 (ZP18481-35), major” in data set [2].
On to “H-HGEGSFSSELSTILDALAARDFIAWLIATKITDKKKKKK-NH2 [ZP1846]”, for which the midpoint of the response in data set [3], the EC50, lay at 0.26 nM. That is a sub-nanomolar value.
For the substance “H-HGEGTFSSELATILDALAARDFIAWLIATKITDKKKKKK-NH2 [ZP1848] [listing 1 of 2 here]”, it took 0.3 nM to reach a half-maximal effect in data set [3] (EC50).
As for “H-HGEGTFSSELATILDALAARDFIAWLIATKITDKKK-OH [ZP2949]”, in data set [3], the EC50 was 0.11 nM.
On to “H-HGEGTFSSELATILDALAARDFIAWLIATKITDKK-OH [ZP2711]”, for which the plasma level entry in data set [4] (in words, relative to ZP1848 after administration of ZP1848) is recorded as “in the same range as that of ZP1848”. The Conc. in data set [4] (Day 0 (visit 11 or 25, treatment balance study), ZP1848 SC once daily, individual subjects) was 0.131 nM and 0.543 nM; in data set [4] (Day 28-56 (visit 17 or 29, after wash-out/follow-up), individual subjects), 0.0326 nM and 0.0614 nM. The Half-life in data set [4] (terminal, from Day 0 and wash-out/follow-up concentrations, individual subjects) stood at 240 h. In data set [3], this substance had an EC50 of 0.072 nM. Besides, the in vitro potency entry in data set [3] (in words, relative to ZP1848) was “comparable to ZP1848”.
lixisenatide: the Half-life in data set [5] was 2 to 4 h.
With “H-HGEGTFSSELATILDALAARDFIAWLIATKITDKKKKKK-NH2 [ZP1848] [listing 2 of 2 here]”, the “SI length, percentage increase relative to control group” value in data set [6] (setting [9]) was 47%; in data set [6] (setting [10]), 45%; in data set [6] (setting [11]), 38%; in data set [6] (setting [12]), 39%. Further, the “SI weight, percentage increase relative to control group” value is 238% in data set [6] (setting [9]), 101% in data set [6] (setting [10]), 190% in data set [6] (setting [11]) and 85% in data set [6] (setting [12]). Moreover, the “length and weight of the small intestines” value in data set [6] (in words, 1, 3 and 10 mg/kg SC daily, 26 weeks) is “dose-related significant (p<0.01) increases”. The “length and weight of the large intestine” value in data set [6] (in words, 26 weeks SC daily) was “slightly increased”. Besides, the “mucosal hyperplasia of the duodenum, jejunum and ileum” value in data set [6] (in words, histology, 26 weeks SC daily) is “dose-related increase”. Further, the “Changes in Absolute Fecal Wet Weight Output (Means)” value in data set [7] (IF (n=11), 0.1 mg SC once daily) is given as 196 g/day; in data set [7] (IF (n=11), 1 mg + 10 mg pooled) it was -741 g/day; in data set [7] (IF (n=11), 1 mg SC once daily), -587 g/day; in data set [7] (IF (n=11), 10 mg SC once daily), -894 g/day; in data set [7] (II (n=5), 0.1 mg SC once daily), -37 g/day; in data set [7] (II (n=5), 1 mg + 10 mg pooled), -570 g/day. Besides, the “Changes in Absolute Fecal Wet Weight Output (Means)” value in data set [7] (II (n=5), 1 mg SC once daily) is -303 g/day; in data set [7] (II (n=5), 10 mg SC once daily), -837 g/day; in data set [7] (II+IF (n=16), 0.1 mg SC once daily) it was 173 g/day; in data set [7] (II+IF (n=16), 1 mg + 10 mg pooled), -713 g/day; in data set [7] (II+IF (n=16), 1 mg SC once daily), -592 g/day; in data set [7] (II+IF (n=16), 10 mg SC once daily), -833 g/day. Moreover, the “increase in small intestine length” value turned out to be 37% in data set [8] (setting [13]), 19% in data set [8] (setting [14]), 46% in data set [8] (setting [15]) and 16% in data set [8] (setting [16]). Moreover, the “increase in small intestine weight” value in data set [8] (setting [13]) was determined as 80%; in data set [8] (setting [14]), 34%; in data set [8] (setting [15]), 103%; in data set [8] (setting [16]), 78%.

These data come from patent publication EP4796171A2 (Zealand Pharma A/S, priority 2017, dated 2018).
